“Also recorded” adds a separate entry of the source.
Experiments:
[1] = test system: primary rat alveolar macrophages; assay: LPS-induced NO production by rat alveolar macrophages; assay type: cell-based; conditions: LPS 10 ng/ml, 24 h, liposomes; LPS without phospholipid = 100%
Method: FIG. 1. Anionic phospholipids inhibit inflammatory mediator production induced by LPS. Liposomes composed of sphingomyelin (SM), phosphatidylethanolamine (PE) dipalmitoyl-phosphatidylcholine ((DPPC), phosphatidylserine (PS), palmitoyl-oleoyl-phosphatidylglycerol (POPG) and phosphatidylinositol (PI) were formed by bath-sonication for 30 min at room temperature. LPS (10 ng/ml) and different concentrations of phospholipids were added to monolayer cultures of differentiated U937 cells (A), or primary rat alveolar macrophages (B). At 6 h after stimulation, media were collected and secreted TNF-α levels were determined in U937 cultures. NO production was determined 24 h after stimulating rat alveolar macrophages. LPS stimulation in the absence of phospholipid was set as 100%. […] The average TNF-α production upon LPS stimulation was (8.0±0.54 ng/ml). The average NO production upon LPS stimulation was 12.17±0.27 μM.
FIG. 2. The inhibitory effect of phosphatidylglycerols on LPS-induced inflammatory mediator production is molecular species specific. PG liposomes were formed by bath-sonication for 30 min at room temperature. LPS (10 ng/ml) and different concentrations of PG were added to monolayer cultures of differentiated U937 cells (A) or rat alveolar macrophages (B). Media TNF-α measurements were performed 6 h after stimulation. Media NO measurements were performed 24 h after stimulation. LPS stimulation without PG was set at 100%. The molecular species of PG shown on the graph are 8:0; dioctanoyl-phosphatidylglycerol, 12:0; dilauroyl-phosphatidylglycerol (DLPG), 14:0; dimyristoyl-phosphatidylglycerol (DMPG), 16:0; dipalmitoyl-phosphatidylglycerol (DPPG), 18:0; distearoyl-phosphatidylglycerol, 16:0/18:1; palmitoyl-oleoyl-phosphatidylglycerol (POPG). […] The average TNF-α production upon LPS stimulation was 11.3±0.7 ng/ml. The average NO production upon LPS stimulation was 10.1±0.6 μM.
Rat alveolar macrophages were isolated from bronchoalveolar lavage fluid (BALF) of Sprague-Dawley rats. The lungs were lavaged with pyrogen-free saline, and alveolar macrophages were sedimented by centrifugation at 150×g×5 min. Isolated macrophages were plated at 5×10^5 cells/well in 24-well plates (Falcon) in RPMI 1640 medium containing 10% BGS. The cells were allowed to adhere for 2 h and then used for the experiments after washing with phosphate-buffered-saline (PBS) to remove the unattached cells.
Nitric oxide (NO) accumulation in the supernatant was determined as previously reported (28). Briefly, rat alveolar macrophages were stimulated with LPS (10 ng/ml) or LPS plus phospholipids for 24 h. Culture supernatants (usually […]) were combined with an equal volume of Greiss reagent, and the samples were incubated at room temperature for 10 min before the absorbance was quantified at 550 nm. With the use of a standard curve, the nmol of NO produced were determined and normalized to total cell number in each sample.

[2] = test system: human alveolar macrophages; assay: LPS-induced TNF-α production by primary human alveolar macrophages; assay type: cell-based; conditions: LPS 10 ng/ml, phospholipids 20 μg/ml, 6 h
Method: (§1) FIG. 8. POPG, DMPG and PI antagonize the effects of LPS on primary human alveolar macrophages. Human alveolar macrophages were isolated from healthy volunteer BALF and plated onto a 96-well plate. Two days after plating, 10 ng/ml of LPS and 20 μg/ml of phospholipids were added to monolayer cultures of human alveolar macrophages. 6 h after stimulation, media were collected and TNF-α production was determined by ELISA. LPS stimulation without phospholipid was set at 100%. […] The average TNF-α secretion after LPS stimulation was 30.7±15.1 ng/ml. Significance—**: p<0.01, when compared with LPS stimulation in the absence of POPG.
Human alveolar macrophages were isolated from BALF of healthy volunteers using protocols reviewed and approved by the National Jewish Medical Research Center IRB and the University of Colorado General Clinical Research Center. The lungs were lavaged with pyrogen-free saline, and alveolar macrophages were sedimented by centrifugation at 150×g×5 min. Isolated macrophages were plated at 5×10^4 cells/well in 96-well plates (Falcon) in RPMI 1640 medium containing 10% BGS. The cells were allowed to adhere for 48 h and then used for the experiments after washing with PBS to remove the unattached cells.
U937 cells were induced to differentiate by treatment with 10 nM phorbol myristate acetate (PMA) for 48 h. The cells (1.3×10^5/well) were placed in 96-well plates and further incubated in the absence of PMA for 24 h in RPMI 1640 medium containing 10% BGS. Rat alveolar macrophages (5×10^5/well) were incubated in 24-well plates for 2 h after isolation. The indicated concentration of phospholipids was added to the cultures 30 min before adding LPS. After LPS addition cultures were incubated for 6 h at 37° C. at an atmosphere of 95% air and 5% CO2. At the end of the incubation period the medium was collected and assayed for TNF-α concentrations using an ELISA kit.
as §1, with “Human” for “FIG. 8. POPG, DMPG and PI antagonize the effects of LPS on primary human alveolar macrophages. Human”, “phospholipids (POPG, DMPG and PI)” for “phospholipids”

[3] = test system: differentiated U937 cells; assay: LPS-induced TNF-α production by U937 cells in serum free media (without LBP); assay type: cell-based, human; conditions: for LPS-induced synthesis and secretion of TNF-α in serum free media: LPS 10 ng/ml, 6 h, without LBP; for potency as LPS antagonist without LBP: serum free media compared with serum
Method: U937 cells were induced to differentiate by incubation in medium containing 10 nM of phorbol myristate acetate (PMA) for 48 h. The cells (1.3×10^5/well) were placed on 96-well plates and further incubated in the absence of PMA for 24 h in RPMI 1640 medium containing 10% BGS. After the cells were washed with PBS, the indicated concentration of phospholipids was preincubated with the cells in RPMI without serum for 30 min before adding LPS. The indicated amount of LPS was then added into the well and incubated for 6 h at 37° C. with 5% CO2. The culture medium was collected and assayed for TNF-α secretion using an ELISA kit (Invitrogen).

Row | Compound | LPS-induced NO production [1] | LPS-induced TNF-α production [2] | LPS-induced TNF-α production ([2]; listed as dimyristoyl PG) | LPS-induced synthesis and secretion of TNF-α in serum free media [3] | potency as LPS antagonist without LBP [3]
1 | CCCCCCCCCCCCCC(=O)OCC(COP(=O)(O)OCC(O)CO)OC(=O)CCCCCCCCCCCCC (centres unmarked) [DMPG, dimyristoyl-phosphatidylglycerol] | as potent as POPG | antagonize | markedly attenuate | still inhibited | continues to remain high
2 | CCCCCCCCCCCCCCCC(=O)OC[C@H](COP(=O)([O-])OCC[N+](C)(C)C)OC(=O)CCCCCCCCCCCCCCC [DPPC, dipalmitoyl-phosphatidylcholine, reference compound] | no significant effect | no significant effect | – | – | –
3 | CCCCCCCCCCCCCCCC(=O)OCC(COP(=O)(O)OCC(O)CO)OC(=O)CCCCCCCCCCCCCCC (centres unmarked) [DPPG, dipalmitoyl-phosphatidylglycerol, reference compound] | failed to antagonize | no significant effect | – | – | –
4 | CCCCCCCC/C=C\CCCCCCCC(=O)O[C@H](COC(=O)CCCCCCCCCCCCCCC)COP(=O)(O)OCC(O)CO (some centres unmarked) [POPG, palmitoyl-oleoyl-phosphatidylglycerol] | significantly attenuated | markedly attenuate; also recorded: antagonize | – | still inhibited | modestly diminished
5 | phosphatidylinositol [PI] | significantly attenuated | markedly attenuate; also recorded: antagonize | – | still inhibited | modestly diminished

— US10532066B2, “Surfactant lipids, compositions thereof, and uses thereof” (National Jewish Health, priority 2007, dated 2020)
